In US20230105212A1, “BIPHENYL DERIVATIVE INHIBITOR, PREPARATION METHOD THEREFOR AND USE THEREOF” (SHANGHAI HANSOH BIOMEDICAL CO., LTD., priority 2020, published 2023):

Assays:
[1] = test system: NFAT-luc2/PD1 Jurkat cells; test: In vitro cytotoxicity on NFAT-luc2/PD1 Jurkat cells (CellTiter-Glo); format: cell-based; conditions: 72 hours; for IC50: Homo sapiens, Jurkat
Method: (§1) Test Embodiment 5. In Vitro Cytotoxicity of the Compounds of the Present Disclosure on NFAT-Luc2/PD1 Jurkat Cells and MC38-hPDL1 Cells
(§2) Experimental purpose: To test the in vitro cytotoxicity of compounds on NFAT-luc2/PD1 Jurkat cells and MC38-hPDL1 cells.
(§3) When the cells were cultured to an appropriate degree of confluency, the cells were collected, and the cells was adjusted in an appropriate cell concentration by complete medium, then the cell suspension was plated in a 96-well plate, 90 μL per well, and put in a 37° C., 5% CO2 incubator overnight; compound solutions of different concentrations were prepared by DMSO and medium, and a vehicle control was set; compound solutions were added to a 96-well plate, 10 μL per well, and put in a 37° C., 5% CO2 incubator and cultured for 72 hours. After that, CellTiter-Glo solution was added, the mixture was shaken and mixed evenly, incubated in the dark for 10 minutes, and a BioTek Synergy H1 microplate reader was used for reading.
(§4) Luminescence signal value was used to calculate the inhibition rate, and the concentration and inhibition rate were fitted by nonlinear regression curve using Graphpad Prism software to obtain IC50 values, as shown in the following table: […]

[2] = biological target: T1, PD-L1 protein on the surface of MC38-hPDL1 tumor cells (Homo sapiens, UniProt Q9NZQ7); test: Induction of endocytosis of PD-L1 on the surface of tumor cells (flow cytometry); format: cell-based; conditions: 16 hours incubation; for Emax: MC38-hPDL1 cells, read-out: MC38 maximum endocytosis rate; for IC50: inducing endocytosis of PD-L1, MC38-hPDL1 cells, read-out: MC38 IC50
T1 construct: expressed in transfected cells; host or cells: MC38-hPDL1 (mouse colon cancer cells)
T1 sequence (Q9NZQ7 19-290): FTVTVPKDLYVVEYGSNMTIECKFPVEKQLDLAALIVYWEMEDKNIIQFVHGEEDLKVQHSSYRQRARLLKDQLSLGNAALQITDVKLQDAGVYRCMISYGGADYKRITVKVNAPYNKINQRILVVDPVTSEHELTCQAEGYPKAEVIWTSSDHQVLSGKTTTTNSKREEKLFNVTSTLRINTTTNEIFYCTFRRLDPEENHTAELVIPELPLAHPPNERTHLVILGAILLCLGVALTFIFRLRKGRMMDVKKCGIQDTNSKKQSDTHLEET
Procedure, shortened: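 IC50 comes from nonlinear fits of endocytosis rate, calculated from the loss of surface PE-anti-CD274 flow signal relative to vehicle. Cells were MC38 mouse colon cancer cells engineered to express high human PD-L1. Compound exposure lasted 16 h at 37 °C, 5% CO2.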

[3] = biological target: T2, human PD-L1 protein (Homo sapiens, UniProt Q9NZQ7); test: Thermal shift: melting temperature of PD-L1 protein; format: binding; conditions: compound 10 μM, PD-L1 protein 2 μM, Tm minus DMSO vehicle control; read-out: ΔTm (° C.)
T2 construct: purchased Acro Biosystems PD1-H5229
T2 sequence (Q9NZQ7 19-238 limits assumed): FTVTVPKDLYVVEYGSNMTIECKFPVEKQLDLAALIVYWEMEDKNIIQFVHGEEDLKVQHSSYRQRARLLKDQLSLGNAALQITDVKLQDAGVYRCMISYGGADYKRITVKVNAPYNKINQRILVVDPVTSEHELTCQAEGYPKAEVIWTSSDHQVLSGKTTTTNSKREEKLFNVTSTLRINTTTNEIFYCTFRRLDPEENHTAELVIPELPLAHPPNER
Procedure, shortened: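 Human PD-L1 at 2 μM final was tested in […], 150 mM NaCl with SYPRO Orange, heated 25→95 °C at 0.03 °C/s in a PCR melt-curve run. Tm was taken per treatment; ΔTm is the shift relative to DMSO vehicle.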

[4] = test system: MC38-hPDL1 cells; test: In vitro cytotoxicity on MC38-hPDL1 cells (CellTiter-Glo); format: cell-based, mouse; conditions: for MC38-hPDL1 inhibition rate (%): 72 hours; for IC50: Mus musculus, MC38-hPD-L1, 72 hours
Method: as §1, §2, §3, §4

[5] = biological target: T3, human PD-1/PD-L1 binding (Homo sapiens, UniProt Q9NZQ7); test: Inhibition of human PD-1/PD-L1 binding (TR-FRET/HTRF); conditions: TR-FRET, PD-L1-His and PD-1-Fc; read-out: PD-1/PD-L1 binding IC50
T3 construct: PD-L1-His protein (19 to 238 amino acids) (Abcam #ab167713); purchased Abcam (PD-L1-His); R&D (PD-1-Fc) ab167713; 1086-PD
T3 sequence (Q9NZQ7 19-238): as the sequence (Q9NZQ7 19-238 limits assumed) above
Procedure, shortened: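 PD-L1-His (aa 19–238, diluted to 10 nM) and PD-1-Fc (aa 25–167, diluted to 20 nM) incubated with compounds (10 μM or 1 μM top, 3-fold, 11 doses) 60 min at room temperature, then anti-6HIS Eu cryptate/anti-human IgG-XL665 added for 3 h RT or overnight 4 °C. HTRF 665/620 nm ratio gave inhibition and IC50.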

[6] = test system: CHO-PDL1/Jurkat-PD1 cell pathway; test: Inhibition of CHO-PDL1/Jurkat-PD1 cell pathway (NFAT luciferase reporter); format: cell-based; conditions: for EC50: 6 hours incubation, luciferase signal; for maximal fold induction: relative to the signal value of the non-dosed group, read-out: Maximum induction fold
Method: Test Embodiment 3. Inhibitory Effect of the Compounds of the Present Disclosure on CHO-PDL1/Jurkat-PD1 Cell Pathway
Experimental purpose: The purpose of this test embodiment was to test the inhibitory effect of compounds on the CHO-PDL1/Jurkat-PD1 cell pathway.
Experimental method: Two stably transfected cell lines were included in this experiment, CHO-K1 cells stably transfected with PD-L1 and Jurkat cells stably transfected with PD-1 and NFAT luciferase reporter genes. Compounds were incubated with the two cell lines. Then, due to the inhibitory effect on the PD-1/PD-L1 pathway, the activation degree of Jurkat cells changed, so that the level of the reporter gene NFAT in the downstream of Jurkat cells changed, and the level of NFAT was characterized by detecting the signal value of luciferase, so that the inhibitory effect of the test compound on CHO-PDL1/Jurkat-PD1 pathway was characterized.
CHO-PDL1 cells (Promega, #J1252) were cultured to a suitable cell density. After digestion, the cells were resuspended by complete medium to become a suitable density of cell suspension. The cell suspension was plated 100 μL per well on a 96-well plate (Corning, #3610), and placed in a 37° C., 5% CO2 incubator and incubated overnight, and assay medium (RPMI 1640+2% FBS, RPMI 1640 Cat. No.: Gibco, #22400089, FBS Cat. No.: Gibco, #10091148) was used to prepare compound solutions of different concentrations. NFAT-luc2/PD1 Jurkat cells (Promega, #J1252) were collected and resuspended to the appropriate cell density using assay medium. The supernatant of the CHO-PDL1 cell culture plate was aspirated, and 40 μL of the prepared compound solution and 40 μL of resuspended NFAT-luc2/PD1 Jurkat cells were added, and incubated in a 5% CO2 incubator at 37° C. for 6 hours, and the cell plate was taken out, then 40 μL of One-Glo reagent (Promega, #E6120) was added to each well, shaked and mixed well, incubated in the dark at room temperature for 10 minutes, then put into a microplate reader and the luminescence program was used to read the luminescence value of the cell plate.
The EC50 value was fitted according to the compound concentration and the luminescence signal value, and the maximum induction fold of each compound relative to the signal value of the non-dosed group was calculated, as shown in Table 3.

Structure (SMILES) | Jurkat-PD1 inhibition rate (%) [1] | IC50 [1] [nM] | Emax [2] [%] | IC50 [2] [nM] | ΔTm at 10 µM [3] [°C] | MC38-hPDL1 inhibition rate (%) [4] | IC50 [4] [nM] | IC50 [5] [nM] | EC50 [6] [nM] | maximal fold induction [6]
COc1cc(C(=O)Nc2cccc(-c3cccc(NC(=O)c4nc5c(n4C)CCN(C)C5)c3Cl)c2C)ncc1CN[C@@H]1CCOC[C@@H]1F [Embodiment 30, N-(2-Chloro-3′-(5-((((3R,4R)-3-fluorotetrahydro-2H-pyran-4-yl)amino)methyl)-4-methoxypicolinamido)-2′-methyl-[1,1′-biphenyl]-3-yl)-1,5-dimethyl-4,5,6,7-tetrahydro-1H-imidazo[4,5-c]pyridine-2-carboxamide] | 99.0%^ | 2950 | 94 | 3.7 | 11.2 | 4.0% | > 10000 | 5.7 |  | 
COc1cc(C(=O)Nc2cccc(-c3cccc(NC(=O)c4nc5c(n4C)CCN(C)C5)c3Cl)c2C)ncc1CNc1ccnc(C)n1 [Embodiment 90, N-(2-Chloro-3′-(4-methoxy-5-(((2-methylpyrimidin-4-yl)amino)methyl)picolinamido)-2′-methyl-[1,1′-biphenyl]-3-yl)-1,5-dimethyl-4,5,6,7-tetrahydro-1H-imidazo[4,5-c]pyridine-2-carboxamide] | 99.0%^ | 1400 | 80 | 9.9 | 11 | 6.8% | > 10000 |  | 99 | 3.2
COc1cc(C(=O)Nc2cccc(-c3cccc(NC(=O)c4nc5c(n4C)CCN(C)C5)c3Cl)c2C)ncc1CNC1(C(=O)O)COC1 [Embodiment 102, 3-(((6-((2′-Chloro-3′-(1,5-dimethyl-4,5,6,7-tetrahydro-1H-imidazo[4,5-c]pyridine-2-carboxamido)-2-methyl-[1,1′-biphenyl]-3-yl)carbamoyl)-4-methoxypyridin-3-yl)methyl)amino)oxetane-3-carboxylic Acid] | −12.0% ^ | > 10000 |  |  | 10.8 | −6.7%^ | > 10000 | 1 |  | 
COc1nc(-c2cccc(-c3cccc(NC(=O)c4nc5c(n4C)CCN(C)C5)c3Cl)c2C)ccc1CNC1COC1 [Embodiment 112, N-(2-Chloro-3′-(6-methoxy-5-((oxetan-3-ylamino)methyl)pyridin-2-yl)-2′-methyl-[1,1′-biphenyl]-3-yl)-1,5-dimethyl-4,5,6,7-tetrahydro-1H-imidazo[4,5-c]pyridine-2-carboxamide] | 57.0%^ | 8630 | 87 | 11 | 12 | 13.0%^ | > 10000 | 9.4 |  | 
COc1cc(-c2cccc(-c3cccc(NC(=O)c4nc5c(n4C)CCN(C)C5)c3Cl)c2Cl)ccc1CNCC(=O)O [Embodiment 159, ((2′,2″-Dichloro-3″-(1,5-dimethyl-4,5,6,7-tetrahydro-1H-imidazo[4,5-c]pyridine-2-carboxamido)-3-methoxy-[1,1′:3′,1″-terphenyl]-4-yl)methyl)glycine] | 24% | > 10000 |  |  |  | 5% | > 10000 | 2.2 | 45 | 3.2
COc1nc(-c2cccc(-c3cccc(NC(=O)c4nc5c(n4C)CCN(C)C5)c3Cl)c2Cl)ccc1CN1CC(CO)C1 [Embodiment 215, N-(2,2′-Dichloro-3′-(5-((3-(hydroxymethyl)azetidin-1-yl)methyl)-6-methoxypyridin-2-yl)-[1,1′-biphenyl]-3-yl)-1,5-dimethyl-4,5,6,7-tetrahydro-1H-imidazo[4,5-c]pyridine-2-carboxamide] | 85% | 4320 | 96 |  | 17.3 | 51% | 9340 | 5 |  | 
COc1nc(-c2cccc(-c3cccc(NC(=O)c4nc5c(n4C)CCN(C)C5)c3Cl)c2Cl)ncc1CN1CC(NC(C)=O)C1 [Embodiment 224, N-(3′-(5-((3-Acetylaminoazetidin-1-yl)methyl)-4-methoxypyrimidin-2-yl)-2,2′-dichloro-[1,1′-biphenyl]-3-yl)-1,5-dimethyl-4,5,6,7-tetrahydro-1H-imidazo[4,5-c]pyridine-2-carboxamide] | 48% | 9500 | 90 |  | 11.3 | 1% | > 10000 | 4 |  | 
